{
  "source": "ChEMBL document CHEMBL1133170",
  "about": "“Binding mode of the 4-anilinoquinazoline class of protein kinase inhibitor: X-ray crystallographic studies of 4-anilinoquinazolines bound to cyclin-dependent kinase 2 and p38 kinase” (J Med Chem, 2000)",
  "key": {"[1]": {"molecular_target": "Cyclin-dependent kinase 2 (Homo sapiens, UniProt P24941)", "test": "Inhibition of Cyclin-dependent kinase 2"}, "MAP kinase p38": {"molecular_target": "MAP kinase p38 (Homo sapiens, UniProt O15264+Q15759+Q16539+P53778)", "test": "Inhibition of Mitogen-activated protein kinase p38", "format": "protein assay"}},
  "data": [
    {"smiles": "COc1cc2ncnc(Nc3cccc(Br)c3)c2cc1OC", "values": [
      {"measurement": "IC50", "setting": "[1]", "result": 250, "unit": "µM"},
      {"measurement": "IC50", "setting": "MAP kinase p38", "result": 6.3, "unit": "µM"}
    ]}
  ]
}
